# Laboratory results reported in US20230348369A1 (Cytokinetics, Inc., priority 2020, published 2023).
# Where two headings read alike, the source gives them in different places.
# Target: human NAMPT (Homo sapiens, UniProt P43490)
# Experiment: Human recombinant enzyme assay (NMN fluorescence biochemical assay, activation of NAMPT)
# How it was run: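 NMN production is detected fluorometrically (Ex 355/Em 460 nm) 40 min after acetophenone, KOH and formic acid derivatization. Reactions ran 60 min at ambient temperature: 6 nM human NAMPT, nicotinamide 150 μM, PRPP 20 μM, ATP 2.5 mM, buffered at pH 7.2 with 50 mM HEPES plus DTT, CHAPS, NaCl and 100 mM MgCl2.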
# [1] = Table A, human recombinant NAMPT, NMN formation, 60 min
# [2] = Table A, human recombinant NAMPT, NMN formation, 60 min, read-out: EC50 Human
# Sequence of human NAMPT (P43490 whole entry): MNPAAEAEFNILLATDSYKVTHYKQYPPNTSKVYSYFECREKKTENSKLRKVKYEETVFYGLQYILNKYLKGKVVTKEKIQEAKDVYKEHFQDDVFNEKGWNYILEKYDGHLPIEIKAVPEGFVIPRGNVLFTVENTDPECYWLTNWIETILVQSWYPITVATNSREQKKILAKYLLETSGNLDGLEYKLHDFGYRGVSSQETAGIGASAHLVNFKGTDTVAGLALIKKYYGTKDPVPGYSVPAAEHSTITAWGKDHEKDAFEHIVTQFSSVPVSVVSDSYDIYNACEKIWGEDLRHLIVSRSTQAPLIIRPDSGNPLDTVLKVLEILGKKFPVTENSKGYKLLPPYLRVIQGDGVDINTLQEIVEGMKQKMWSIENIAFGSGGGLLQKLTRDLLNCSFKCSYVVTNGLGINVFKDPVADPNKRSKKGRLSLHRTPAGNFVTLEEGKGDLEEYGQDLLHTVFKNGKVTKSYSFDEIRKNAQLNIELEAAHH
AC1.4 Human [1],EC50 [2],SMILES,EC50
0.9 µM,1 µM,"COC(=O)N1CCN(C(=O)C2CC3(CC(NC(=O)NCc4ccc(Cl)cc4)C3)C2)CC1 (centres unmarked) [Compound 233, Methyl 4-(6-(3-(4-chlorobenzyl)ureido)spiro[3.3]heptane-2-carbonyl)piperazine-1-carboxylate]",
3.7 µM,8.6 µM,"CC(C)(O)CN1CCN(C(=O)CC2CC3(C2)CC(NC(=O)NCc2ccc(Cl)cc2)C3)CC1 (centres unmarked) [Compound 234, 1-(4-chlorobenzyl)-3-(6-(2-(4-(2-hydoxy-2-methylpropyl)piperazin-1-yl)-2-oxoethyl)spiro[3.3]heptan-2-yl)urea]",
4.1 µM,7.5 µM,"O=C(NCc1ccc(Cl)cc1)NC1CC2(CC(CC(=O)N3CCC[C@H]3CO)C2)C1 (stereo partly drawn) [Compound 235, (S)-1-(4-chlorobenzyl)-3-(6-(2-(2-(hydroxymethyl)pyrrolidin-1-yl)-2-oxoethyl)spiro[3.3]heptan-2-yl)urea]",
3.6 µM,5.7 µM,"O=C(NCc1ccc(Cl)cc1)NC1CC2(CC(CC(=O)N3CCCC3)C2)C1 (centres unmarked) [Compound 236, 1-(4-chlorobenzyl)-3-(6-(2-oxo-2-(pyrrolidin-1-yl)ethyl)spiro[3.3]heptan-2-yl)urea]",
3.4 µM,20.3 µM,"CN1CCN(CC2CC3(C2)CC(NC(=O)NCc2ccc(Cl)cc2)C3)CC1=O (centres unmarked) [Compound 238, 1-(4-chlorobenzyl)-3-(6-((4-methyl-3-oxopiperazin-1-yl)methyl)spiro[3.3]heptan-2-yl)urea]",
2.1 µM,22.5 µM,"O=C(NCc1ccc(Cl)cc1)NC1CC2(CC(CN3CCC[C@@H]3c3cccnc3)C2)C1 (stereo partly drawn) [Compound 239, (R)-1-(4-chlorobenzyl)-3-(6-((2-(pyridin-3-yl)pyrrolidin-1-yl)methyl)spiro[3.3]heptan-2-yl)urea]",
2.7 µM,5.7 µM,"CC1CCC(=O)N1CC1CC2(C1)CC(NC(=O)NCc1ccc(Cl)cc1)C2 (centres unmarked) [Compound 241, 1-(4-chlorobenzyl)-3-(6-((2-methyl-5-oxopyrrolidin-1-yl)methyl)spiro[3.3]heptan-2-yl)urea]",
1.5 µM,4.2 µM,"O=C(NCc1ccc(Cl)cc1)NC1CC2(CC(CNC(=O)C3CCS(=O)(=O)CC3)C2)C1 (centres unmarked) [Compound 243, N-((6-(3-(4-chlorobenzyl)ureido)spiro[3.3]heptan-2-yl)methyl)tetrahydro-2H-thiopyran-4-carboxamide 1,1-dioxide]",
3.4 µM,7.3 µM,"CC1CCN(CC2CC3(C2)CC(NC(=O)NCc2ccc(Cl)cc2)C3)C1=O (centres unmarked) [Compound 244, 1-(4-chlorobenzyl)-3-(6-((3-methyl-2-oxopyrrolidin-1-yl)methyl)spiro[3.3]heptan-2-yl)urea]",
2.1 µM,4.2 µM,"Cc1cc(C(=O)NCC2CC3(C2)CC(NC(=O)NCc2ccc(Cl)cc2)C3)ccn1 (centres unmarked) [Compound 246, N-((6-(3-(4-chlorobenzyl)ureido)spiro[3.3]heptan-2-yl)methyl)-2-methylisonicotinamide]",
2.8 µM,7.9 µM,"O=C(NCc1ccc(Cl)cc1)NC1CC2(CC(CNC(=O)c3cn[nH]c3)C2)C1 (centres unmarked) [Compound 247, N-((6-(3-(4-chlorobenzyl)ureido)spiro[3.3]heptan-2-yl)methyl)-1H-pyrazole-4-carboxamide]",
1.8 µM,7.7 µM,"O=C(NCc1ccc(Cl)cc1)NC1CC2(CC(CNC(=O)C3CCOCC3)C2)C1 (centres unmarked) [Compound 250, N-((6-(3-(4-chlorobenzyl)ureido)spiro[3.3]heptan-2-yl)methyl)tetrahydro-2H-pyran-4-carboxamide]",

# The next lines start with the molecule.
SMILES,AC1.4 Human [1],EC50 [2],EC50
"NC(=O)c1ccc(CNC(=O)NC2CC3(C2)CN(C(=O)c2ccc(Cl)cc2)C3)cc1 [Compound 224, 4-((3-(2-(4-chlorobenzoyl)-2-azaspiro[3.3]heptan-6-yl)ureido)methyl)benzamide]",0.6 µM,47.5 µM,
"Cc1ccc(C(=O)N2CC3(CC(NC(=O)NCc4ccc(C(N)=O)cc4)C3)C2)cn1 [Compound 225, 4-((3-(2-(6-methylnicotinoyl)-2-azaspiro[3.3]heptan-6-yl)ureido)methyl)benzamide]",2.0 µM,50.8 µM,
"Cc1cc(C(=O)N2CC3(CC(NC(=O)NCc4ccc(C(N)=O)cc4)C3)C2)ccn1 [Compound 226, 4-((3-(2-(2-methylisonicotinoyl)-2-azaspiro[3.3]heptan-6-yl)ureido)methyl)benzamide]",2.9 µM,31.4 µM,
"Cc1ccc(C(=O)N2CC3(CC(NC(=O)NCc4cn[nH]c4)C3)C2)cc1 [Compound 227, 1-((1H-pyrazol-4-yl)methyl)-3-(2-(4-methylbenzoyl)-2-azaspiro[3.3]heptan-6-yl)urea]",2.0 µM,33.8 µM,
"Cc1ccc(C(=O)N2CC3(CC(NC(=O)NCc4cocn4)C3)C2)cc1 [Compound 228, 1-(2-(4-methylbenzoyl)-2-azaspiro[3.3]heptan-6-yl)-3-(oxazol-4-ylmethyl)urea]",1.9 µM,39.2 µM,
"COc1ccc(CNC(=O)NC2CC3(C2)CC(C(=O)N2CCN(C)CC2)C3)cc1 (centres unmarked) [Compound 230, 1-(4-methoxybenzyl)-3-(6-(4-methylpiperazine-1-carbonyl)spiro[3.3]heptan-2-yl)urea]",1.8 µM,30.9 µM,
"COC(=O)N1CCN(C(=O)C2CC3(CC(NC(=O)NCc4ccc(OC)cc4)C3)C2)CC1 (centres unmarked) [Compound 231, methyl 4-(6-(3-(4-methoxybenzyl)ureido)spiro[3.3]heptane-2-carbonyl)piperazine-1-carboxylate]",0.5 µM,,7.8 µM
"COc1ccc(CNC(=O)NC2CC3(C2)CC(C(=O)N2CCS(=O)(=O)CC2)C3)cc1 (centres unmarked) [Compound 232, 1-(6-(1,1-dioxoidothiomorpholine-4-carbonyl)spiro[3.3]heptan-2-yl)-3-(4-methoxybenzyl)urea]",3.6 µM,37.8 µM,
"CC(C(=O)N(C)Cc1ccccc1)C1CC2(CC(NC(=O)NCc3ccc(Cl)cc3)C2)C1 (centres unmarked) [Compound 237, N-benzyl-2-(6-(3-(4-chlorobenzyl)ureido)spiro[3.3]heptan-2-yl)-N-methylpropanamide]",2.4 µM,2.6 µM,
"Cc1ccc(C(=O)NCC2CC3(C2)CC(NC(=O)NCc2ccc(Cl)cc2)C3)cn1 (centres unmarked) [Compound 240, N-((6-(3-(4-chlorobenzyl)ureido)spiro[3.3]heptan-2-yl)methyl)-6-methylnicotinamide]",0.9 µM,3 µM,
"O=C(NCc1ccc(Cl)cc1)NC1CC2(CC(Cn3nncc3-c3ccccc3)C2)C1 (centres unmarked) [Compound 242, 1-(4-chlorobenzyl)-3-(6-((5-phenyl-1H-1,2,3-triazol-1-yl)methyl)spiro[3.3]heptan-2-yl)urea]",3.6 µM,0.8 µM,
"Cc1cccc(C(=O)NCC2CC3(C2)CC(NC(=O)NCc2ccc(Cl)cc2)C3)n1 (centres unmarked) [Compound 245, N-((6-(3-(4-chlorobenzyl)ureido)spiro[3.3]heptan-2-yl)methyl)-6-methylpicolinamide]",3.1 µM,,4.9 µM
"Cc1ccc(C(=O)N(C)CC2CC3(C2)CC(NC(=O)NCc2ccc(Cl)cc2)C3)cn1 (centres unmarked) [Compound 248, N-((6-(3-(4-chlorobenzyl)ureido)spiro[3.3]heptan-2-yl)methyl)-N,6-dimethylnicotinamide]",5.0 µM,6.6 µM,
